Series [1] relates to mEP^Ephb2, mBT^NICD1, NSC^wt and NSC^null cells. The class given is cell-based, mouse. As to conditions: for cell-selective activity class in HTS: class from average EC50 in each of four cell types, secondary screen.
Series [2] has as its system mEP^Ephb2-LUC brain tumors. Nature of the series: Orthotopic allograft efficacy study, bioluminescence and survival. In kind it is in vivo, mouse. As to conditions: for survival of mice harbouring mEP^Ephb2-LUC tumors / rate of mEP^Ephb2-LUC tumor growth: 5-FU 75 mg/kg i.v. once weekly, bortezomib 0.8 mg/kg i.v. twice weekly; for rate of mEP^Ephb2-LUC tumor growth: bioluminescence.

The test system of series [3] is subventricular zone (SVZ) of Prom1^+/C-L mice. Kind of series: In vivo NSC toxicity: ApoTag, DCX and LacZ. Particulars: for number of Prom1^+ cells in the SVZ / number of apoptotic cells in the SVZ: ±SEM; for number of apoptotic cells in the SVZ: ApoTag.
The test system of series [4] is mEP^Ephb2 cells. Kind of series: HTS activity against ependymoma cells. The class given is cell-based, mouse. As to conditions: result in words.
Series [5] is described as follows: Tolerability of 5-FU infusion via Alzet pumps. The class given is in vivo, mouse. As to conditions: 13 mg/kg/hour via Alzet pumps; unacceptably toxic.
The nature of series [6]: 5-FU pharmacokinetics, tumor microdialysis and plasma. In kind it is in vivo, mouse.
Series [7] relates to IGF1R. Kind of series: Western blot of IGF1R signalling in mEP^Ephb2 cells stimulated with IGF2. In kind it is cell-based, mouse. (In general: Immunoblotting shows a protein as a band on a membrane.)

8 compounds from publication PMC3172881 (Cancer cell, 2011) can be followed below.

In general, EC50 refers to the concentration giving half of the maximal effect. The compound `CC[C@@]1(O)C(=O)OCc2c1cc1n(c2=O)Cc2cc3c(CN(C)C)c(O)ccc3nc2-1` [topotecan] showed an EC50 in series [1] (Mus musculus, 96 h) of 200 to 700 nM. Also, in series [1], the “cell-selective activity class in HTS” value was “equipotent”.

As for `CC(C)C[C@H](NC(=O)[C@H](Cc1ccccc1)NC(=O)c1cnccn1)B(O)O` [bortezomib], in series [2], the “survival of mice harbouring mEP^Ephb2-LUC tumors” value is “significantly prolonged” and the “rate of mEP^Ephb2-LUC tumor growth” value is “halved”. Further, in series [3] (four weeks of therapy), the “DCX^+ labelling in the SVZ” value is reported as “returned to control levels”, the “Prom1^+ cell numbers in the SVZ relative to controls” value is recorded as over 2.5 times, the “apoptotic labelling in the SVZ” value is “returned to control levels” and the “number of Prom1^+ cells in the SVZ” value came out at 57.8%. In series [3] (two weeks of therapy), the “area of DCX^+ neuroblast rests in the SVZ” value is recorded as 6.0 μm^2 per μm ventricular surfac, the “number of Prom1^+ cells in the SVZ” value amounted to 39.2% and the “number of apoptotic cells in the SVZ” value came out at 22.2±5.1. In addition, the “activity against mEP^Ephb2 cells in HTS” value in series [4] is “highly potent”.

In the case of `CS(=O)(=O)CCNCc1ccc(-c2ccc3ncnc(Nc4ccc(OCc5cccc(F)c5)c(Cl)c4)c3c2)o1` [lapatinib], the “activity against mEP^Ephb2 cells in HTS” value in series [4] is “inactive”.

Turning to `O=c1[nH]cc(F)c(=O)[nH]1` [5-FU, 5-fluorouracil], the weight loss in series [5] was at least 20%. In series [2], the “survival of mice harbouring mEP^Ephb2-LUC tumors” value was “significantly prolonged” and the “rate of mEP^Ephb2-LUC tumor growth” value is listed as “halved”. The “activity against mEP^Ephb2-LUC brain tumors” value in series [2] (delivered subcutaneously via Alzet pumps) is “inactive”. Further, in series [6] (13 mg/kg/hour via Alzet pumps, ~10 μM), the “time the tumor concentration was maintained” value is “over 24 hours”. In addition, in series [6] (intravenous bolus 75 mg/kg), the “time brain tumor concentration remained above 10μM” value is listed as “approximately 1 hour”. Besides, in series [6] (intravenous bolus 75 mg/kg, microdialysis, ±79 S.D.), the “peak concentration in brain tumors” value came out at 800 µM. The tumor drug levels result in series [6] (subcutaneous infusion 1.03 mg/kg/hour) is recorded as “failed to generate detectable tumor drug levels”. Further, in series [3] (four weeks of therapy), the “DCX^+ labelling in the SVZ” value is reported as “returned to control levels” and the “apoptotic labelling in the SVZ” value was “returned to control levels”. Besides, in series [3] (two weeks of therapy), the “area of DCX^+ neuroblast rests in the SVZ” value is recorded as 2.2 μm^2 per μm ventricular surfac, the “number of Prom1^+ cells in the SVZ” value is given as 35.1% and the “number of apoptotic cells in the SVZ” value came to 12.0±1.7.

Consider `COc1cc2c(cc1Nc1nc(Nc3ccsc3C(N)=O)c3cc[nH]c3n1)N(C(=O)CN(C)C)CCC2` [GSK2110236A], for which the “activity against mEP^Ephb2 cells in HTS” value in series [4] is on record as “potent inhibitor”. Also, the “IGF1R and its downstream signal” value in series [7] was “blocked”.

For the compound `CCc1c2c(nc3ccc(OC(=O)N4CCC(N5CCCCC5)CC4)cc13)-c1cc3c(c(=O)n1C2)COC(=O)[C@]3(O)CC` [irinotecan], the “activity against mEP^Ephb2 cells in HTS” value in series [4] is “Neither carboplatin nor irinotecan were active”.

On to `C/C=C(\C)C(=O)O[C@H]1[C@H](OC(C)=O)[C@@]2(CO)C(CC1(C)C)C1=CC[C@@H]3[C@@]4(C)CC[C@H](O[C@@H]5O[C@H](C(=O)O)[C@@H](O[C@@H]6O[C@H](CO)[C@@H](O)[C@H](O)[C@H]6O)[C@H](O)[C@H]5O[C@@H]5O[C@H](CO)[C@@H](O)[C@H](O)[C@H]5O)[C@H](CO)C4CC[C@@]3(C)[C@@]1(C)C[C@H]2O` (stereo partly drawn) [beta-escin], for which the “cell-selective activity class in HTS” value in series [1] is “ependymoma selective”.

For the compound `N.N.O=C([O-])C1(C(=O)[O-])CCC1.[Pt+2]` [carboplatin], in series [4], the “activity against mEP^Ephb2 cells in HTS” value is given as “Neither carboplatin nor irinotecan were active”.
